# Patent US8980906B2, “Pyridonemorphinan analogs and biological activity on opioid receptors” (Purdue Pharma L.P., priority 2012, dated 2015)
# Key:
# [1] = target: T1, μ-opioid receptor (Homo sapiens (Human), UniProt P35372); test: μ-opioid receptor [35S]GTPγS functional assay, HEK-293 or CHO cells; assay type: biochemical
# Experimental: (§1) μ-Opioid Receptor Functional Assay Procedures: [^35S]GTPγS functional assays were conducted using freshly thawed μ-receptor membranes prepared in-house from a cell line expressing recombinant μ opioid receptor in a HEK-293, CHO or U-2 OS cell background, or purchased from a commercial source (Perkin Elmer, Shelton, Conn.; or DiscovRx, Fremont, Calif.). Assay reactions were prepared by sequentially adding the following reagents to binding buffer (100 mM NaCl, 10 mM MgCl2, 20 mM HEPES, pH 7.4) on ice (final concentrations indicated): membrane protein (0.026 mg/mL), saponin ([…]), GDP ([…]) and [^35S]GTPγS (0.20 nM; Perkin Elmer, Shelton, Conn.). The prepared membrane solution (190 μl/well) was transferred to 96-shallow well polypropylene plates containing 10 μl of 20× concentrated stock solutions of the agonist [D-Ala^2, N-methyl-Phe^4 Gly-ol^5]-enkephalin (DAMGO) prepared in dimethyl sulfoxide (DMSO). Plates were incubated for 30 min at about 25° C. with shaking. Reactions were terminated by rapid filtration onto 96-well Unifilter GF/B filter plates (Perkin Elmer, Shelton, Conn.) using a 96-well tissue harvester (Perkin Elmer, Shelton, Conn.) followed by three filtration washes with 200 μl of ice-cold wash buffer (10 mM NaH2PO4, 10 mM Na2HPO4, pH 7.4). Filter plates were subsequently dried at 50° C. for 2-3 hours. BetaScint scintillation cocktail (Perkin Elmer, Shelton, Conn.) was added (50 μl/well) and plates were counted using a Packard Top-Count for 1 min/well. Data were analyzed using the sigmoidal dose-response curve fitting functions in GraphPad PRISM v. 3.0, or an in-house function for non-linear, sigmoidal dose-response curve-fitting.
# (§2) μ-Opioid Receptor Functional Data: μ GTP EC50 is the concentration of a compound providing 50% of the maximal response for the compound at a μ-opioid receptor.
# (§3) μ GTP Emax (%) is the maximal effect elicited by a compound relative to the effect elicited by DAMGO, a standard μ agonist. Generally, the μ GTP Emax (%) value measures the efficacy of a compound to treat or prevent pain or other Conditions.
# (§4) In TABLE 2, activity response of certain Compounds of the Invention to the μ-, δ- and κ-opioid receptors was determined as described above for functional assays using HEK-293 or CHO cells.
# [2] = target: T2, κ-opioid receptor (Homo sapiens (Human), UniProt P41145); test: κ-opioid receptor radioligand dose-displacement binding assay ([3H]-U69,593); settings: binding affinity, [3H]-U69,593 displacement
# Experimental: κ-Opioid Receptor Binding Assay Procedures: Membranes from HEK-293 cells, CHO or U-2 OS cells expressing the recombinant human kappa opioid receptor (κ) were prepared by lysing cells in ice cold hypotonic buffer (2.5 mM MgCl2, 50 mM HEPES, pH 7.4) (10 mL/10 cm dish) followed by homogenization with a tissue grinder/Teflon pestle. Membranes were collected by centrifugation at 30,000×g for 15 min at 4° C. and pellets were resuspended in hypotonic buffer to a final concentration of 1-3 mg/mL. Protein concentrations were determined using the BioRad protein assay reagent with bovine serum albumen as standard, Aliquots of κ receptor membranes were stored at […].
# Radioligand dose displacement assays used 0.4 nM [^3H]-U69,593 (GE Healthcare, Piscataway, N.J.; 40 Ci/mmole) with 15 μg membrane protein (recombinant κ opioid receptor expressed in HEK 293 cells; in-house prep) in a final volume of 200 μl binding buffer (5% DMSO, 50 mM Trizma base, pH 7.4). Non-specific binding was determined in the presence of 10 μM unlabeled naloxone or U69,593. All reactions were performed in 96-well polypropylene plates for 1 hour at a temperature of about 25° C. Binding reactions were terminated by rapid filtration onto 96-well Unifilter GF/C filter plates (Perkin Elmer, Shelton, Conn.) presoaked in 0.5% polyethylenimine (Sigma). Harvesting was performed using a 96-well tissue harvester (Perkin Elmer, Shelton, Conn.) followed by five filtration washes with 200 μl ice-cold binding buffer. Filter plates were subsequently dried at 50° C. for 1-2 hours. Fifty μl/well scintillation cocktail (Perkin Elmer, Shelton, Conn.) was added and plates were counted in a Packard Top-Count for 1 min/well.
# [3] = target: T2, κ-opioid receptor; test: κ-opioid receptor [35S]GTPγS functional assay, HEK-293 or CHO cells; assay type: biochemical
# Experimental: (§5) κ-Opioid Receptor Functional Assay Procedures: Functional [^35S]GTPγS binding assays were conducted as follows. κ opioid receptor membrane solution was prepared by sequentially adding final concentrations of 0.026 μg/μl κ membrane protein (in-house), 10 μg/mL saponin, 3 μM GDP and 0.20 nM [^35S]GTPγS to binding buffer (100 mM NaCl, 10 mM MgCl2, 20 mM HEPES, pH 7.4) on ice. The prepared membrane solution (190 μl/well) was transferred to 96-shallow well polypropylene plates containing 10 μl of 20× concentrated stock solutions of agonist prepared in DMSO. Plates were incubated for 30 min at a temperature of about 25° C. with shaking. Reactions were terminated by rapid filtration onto 96-well Unifilter GF/B filter plates (Perkin Elmer, Shelton, Conn.) using a 96-well tissue harvester (Packard) and followed by three filtration washes with 200 μl ice-cold binding buffer (10 mM NaH2PO4, 10 mM Na2HPO4, pH 7.4). Filter plates were subsequently dried at 50° C. for 2-3 hours. Fifty μl/well scintillation cocktail (Perkin Elmer, Shelton, Conn.) was added and plates were counted in a Packard Top-Count for 1 min/well.
# (§6) κ-Opioid Receptor Functional Data: κ GTP EC50 is the concentration of a compound providing 50% of the maximal response for the compound at a κ receptor.
# (§7) κ GTP Emax (%) is the maximal effect elicited by a compound relative to the effect elicited by U69,593.
# as §4
# [4] = target: T1, μ-opioid receptor; test: μ-opioid receptor [35S]GTPγS functional assay, U-2 OS cells; assay type: biochemical
# Experimental: as §1, §2, §3
# (§8) The following TABLE 3 provides results on the activity response of certain Compounds of the Invention at the μ- and κ-opioid receptors determined as described above using U-2 OS cells.
# [5] = target: T2, κ-opioid receptor; test: κ-opioid receptor [35S]GTPγS functional assay, U-2 OS cells; assay type: biochemical
# Experimental: as §5, §6, §7, §8
# [6] = relative to U69,593, HEK-293 or CHO cells
# [7] = relative to DAMGO, HEK-293 or CHO cells
Structure (SMILES),EC50 [1] [nM],Ki [2] [nM],EC50 [3] [nM],"Emax [3, 6] [%]","Emax [1, 7] [%]",also measured
"COC(=O)c1cc2c([nH]c1=O)C[C@]13CCN(CC4CC4)[C@H](Cc4ccc(OC)cc41)[C@]3(O)C2 [Compound 2, (6R,6a,S,12aR)-methyl 15-(cyclopropylmethyl)-6a-hydroxy-2-dimethoxy-10-oxo-6,6a,7,10,11,12-hexahydro-5H-6,12a-(epiminoethano)naphtho[2,1-g]quinoline-9-carboxylate]",> 20000,37.6 ± 4.75,594 ± 87,37.5 ± 2.25,–,–
"COc1ccc2c(c1)[C@]13CCN(CC4CC4)[C@H](C2)[C@]1(O)Cc1cc(C(N)=O)c(=O)[nH]c1C3 [Compound 4, (6R,6aS,12aR)-15-(cyclopropylmethyl)-6a-hydroxy-2-methoxy-10-oxo-6,6a,7,10,11,12-hexahydro-5H-6,12a-(epiminoethano)naphtho[2,1-g]quinoline-9-carboxamide]",> 20000,292 ± 17,5380 ± 489,39.7 ± 5.78,–,–
"COc1ccc2c(c1)[C@]13CCN(CC4CC4)[C@H](C2)[C@@H]1Cc1cc(C(N)=O)c(=O)[nH]c1C3 [Compound 6, (6R,6aR,12aS)-15-(cyclopropylmethyl)-2-methoxy-10-oxo-6,6a,7,10,11,12-hexahydro-5H-6,12a-(epiminoethano)naphtho[2,1-g]quinoline-9-carboxamide]",528 ± 121,35.7 ± 2.74,2980 ± 587,59.3 ± 2.33,19.7 ± 2.02,–
"COc1ccc2c(c1)[C@]13CCN(CC4CC4)[C@H](C2)[C@@H]1Cc1cc(C(=O)O)c(=O)[nH]c1C3 [Compound 10, (6R,6aR,12aS)-15-(cyclopropylmethyl)-2-methoxy-10-oxo-6,6a,7,10,11,12-hexahydro-5H-6,12a-(epiminoethano)naphtho[2,1-g]quinoline-9-carboxylic acid]",–,183 ± 23.3,–,–,–,"EC50 ([1]; GTPγS, HEK-293 or CHO cells, read-out: μ EC50): 225 ± 89.6 nM; μ Emax (%) [1, 7]: 25.67 ± 0.88%; EC50 ([3]; GTPγS, HEK-293 or CHO cells, read-out: κ EC50): 3490 ± 636 nM; κ Emax (%) [3, 6]: 37.75 ± 1.70%"
"COc1ccc2c(c1)[C@]13CCN(CC4CC4)[C@H](C2)[C@]1(O)Cc1cc(C(=O)NCC(N)=O)c(=O)[nH]c1C3 [Compound 13, (6R,6aS,12aR)—N-(2-amino-2-oxoethyl)-15-(cyclopropylmethyl)-6a-hydroxy-2-methoxy-10-oxo-6,6a,7,10,11,12-hexahydro-5H-6,12a-(epiminoethano)naphtho[2,1-g]quinoline-9-carboxamide]",–,467 ± 173,–,–,–,–
"NC(=O)CNC(=O)c1cc2c([nH]c1=O)C[C@]13CCN(CC4CC4)[C@H](Cc4ccc(O)cc41)[C@]3(O)C2 [Compound 14, (6R,6aS,12aR)—N-(2-amino-2-oxoethyl)-15-(cyclopropylmethyl)-2,6a-dihydroxy-10-oxo-6,6a,7,10,11,12-hexahydro-5H-6,12a-(epiminoethano)naphtho[2,1-g]quinoline-9-carboxamide]",> 20000,1.53 ± 0.26,> 20000,–,–,–
C[C@H](NC(=O)c1cc2c([nH]c1=O)C[C@]13CCN(CC4CC4)[C@H](Cc4ccc(O)cc41)[C@]3(O)C2)C(N)=O [Compound 16],6.44 ± 0.41,1.05 ± 0.22,> 20000,–,14.7 ± 3.28,–
"NC(=O)[C@H](Cc1ccccc1)NC(=O)c1cc2c([nH]c1=O)C[C@]13CCN(CC4CC4)[C@H](Cc4ccc(O)cc41)[C@]3(O)C2 [Compound 17, (6R,6aS,12aR)—N—((S)-1-amino-1-oxo-3-phenylpropan-2-yl)-15-(cyclopropylmethyl)-2,6a-dihydroxy-10-oxo-6,6a,7,10,11,12-hexahydro-5H-6,12a-(epiminoethano)naphtho[2,1-g]quinoline-9-carboxamide]",> 20000,0.85 ± 0.15,> 20000,–,-0.33 ± 0.67,–
"CC(C)C[C@H](NC(=O)c1cc2c([nH]c1=O)C[C@]13CCN(CC4CC4)[C@H](Cc4ccc(O)cc41)[C@]3(O)C2)C(N)=O [Compound 18, (6R,6aS,12aR)—N—((S)-1-amino-4-methyl-1-oxopentan-2-yl)-15-(cyclopropylmethyl)-2,6a-dihydroxy-10-oxo-6,6a,7,10,11,12-hexahydro-5H-6,12a-(epiminoethano)naphtho[2,1-g]quinoline-9-carboxamide]",–,1.09 ± 0.05,> 20000,–,–,–
"NC(=O)[C@@H]1CCCN1C(=O)c1cc2c([nH]c1=O)C[C@]13CCN(CC4CC4)[C@H](Cc4ccc(O)cc41)[C@]3(O)C2 [Compound 19, (S)-1-((6R,6aS,12aR)-15-(cyclopropylmethyl)-2,6a-dihydroxy-10-oxo-6,6a,7,10,11,12-hexahydro-5H-6,12a-(epiminoethano)naphtho[2,1-g]quinoline-9-carbonyl)pyrrolidine-2-carboxamide]",> 20000,0.97 ± 0.23,> 20000,–,–,–
"NC(=O)C[C@H](NC(=O)c1cc2c([nH]c1=O)C[C@]13CCN(CC4CC4)[C@H](Cc4ccc(O)cc41)[C@]3(O)C2)C(N)=O [Compound 20, (S)-2-((6R,6aS,12aR)-15-(cyclopropylmethyl)-2,6a-dihydroxy-10-oxo-6,6a,7,10,11,12-hexahydro-5H-6,12a-(epiminoethano)naphtho[2,1-g]quinoline-9-carboxamido)succinamide]",> 20000,2.59 ± 0.99,> 20000,–,–,–
"NC(=O)c1cc2c([nH]c1=O)C[C@]13CCN(CCc4ccccc4)[C@H](Cc4ccc(O)cc41)[C@]3(O)C2 [Compound 37, (6R,6aS,12aR)-2,6a-dihydroxy-10-oxo-15-phenethyl-6,6a,7,10,11,12-hexahydro-5H-6,12a-(epiminoethano)naphtho[2,1-g]quinoline-9-carboxamide]",268 ± 53.1,–,> 20000,2.5,98 ± 4.62,"EC50 [4]: 72.7 ± 3.87 nM; Emax ([4]; relative to DAMGO, U-2 OS cells): 71.3 ± 0.33%; EC50 [5]: 374 ± 93.5 nM; Emax ([5]; relative to U69,593, U-2 OS cells): 11.3 ± 1.45%"
